Key:
[1] = target: T1, Vitamin D3 receptor (Homo sapiens) (UniProt P11473); test: Relative affinity compared to Calcitriol in displacement of [3H]1H]1-alpha,25(OH)2D3 from vitamin D receptor (VDR) in MG-63 cells; format: functional, cell-based
T1 sequence (whole entry): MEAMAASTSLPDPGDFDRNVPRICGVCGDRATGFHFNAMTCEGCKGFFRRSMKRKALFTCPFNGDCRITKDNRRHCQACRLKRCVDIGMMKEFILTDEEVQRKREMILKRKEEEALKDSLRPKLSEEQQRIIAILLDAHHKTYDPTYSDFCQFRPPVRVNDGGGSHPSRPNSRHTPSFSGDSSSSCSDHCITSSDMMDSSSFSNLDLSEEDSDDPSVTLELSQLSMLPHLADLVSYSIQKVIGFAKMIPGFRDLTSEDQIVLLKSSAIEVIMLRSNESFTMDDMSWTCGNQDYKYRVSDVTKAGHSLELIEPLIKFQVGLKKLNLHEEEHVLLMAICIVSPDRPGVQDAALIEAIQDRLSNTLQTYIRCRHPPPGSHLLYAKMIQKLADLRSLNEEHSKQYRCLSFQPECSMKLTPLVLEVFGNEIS

Mus musculus = test: In vivo calcemic effect was tested in vitamin D replete normal […] mice by measuring calcium levels in serum; format: functional; design: reference not given here
[2] = target: T1, Vitamin D3 receptor (Homo sapiens); test: Relative affinity compared to Calcitriol in displacement of [3H]1H]1-alpha,25(OH)2D3 from Vitamin D3 receptor in HL-60 cells; format: functional, cell-based
[3] = target: T1, Vitamin D3 receptor (Homo sapiens); test: Relative affinity compared to Calcitriol in displacement of [3H]1H]1-alpha,25(OH)2D3 from vitamin D3 receptor in […] cells; format: cell-based
[4] = target: T2, Vitamin D3 receptor (Sus scrofa) (UniProt A3RGC1); test: Affinity for pig intestinal mucosa Vitamin D3 receptor (VDR); format: tissue-based
T2 sequence (whole entry): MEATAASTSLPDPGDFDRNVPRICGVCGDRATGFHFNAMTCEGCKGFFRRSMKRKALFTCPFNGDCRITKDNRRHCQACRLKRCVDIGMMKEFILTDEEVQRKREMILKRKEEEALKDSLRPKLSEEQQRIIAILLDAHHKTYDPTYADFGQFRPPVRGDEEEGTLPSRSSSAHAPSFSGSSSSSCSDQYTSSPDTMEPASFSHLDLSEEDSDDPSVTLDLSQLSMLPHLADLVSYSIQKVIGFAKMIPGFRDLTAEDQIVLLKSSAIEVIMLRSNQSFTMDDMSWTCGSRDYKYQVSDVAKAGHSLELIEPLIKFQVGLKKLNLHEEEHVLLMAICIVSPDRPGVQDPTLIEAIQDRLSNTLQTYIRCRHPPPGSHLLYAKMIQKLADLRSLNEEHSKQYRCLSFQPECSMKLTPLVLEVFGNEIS

[5] = test system: keratinocytes (Homo sapiens); test: Antiproliferative activity relative to Calcitriol in Keratinocyte cell lines

Row | Structure (SMILES) | Activity [1] | Activity (Mus musculus) | Activity [2] | Activity [3] | Activity [4] | Activity [5]
1 | C=C1/C(=C/C=C/[C@@H]2CC[C@H]([C@@H](C)CC#CC(C)(C)O)C2(C)C)C[C@@H](O)C[C@@H]1O | 10% | 0.5 | 100% | 150% | 40 | 200%
2 | C=C1/C(=C/C=C/[C@@H]2CC[C@H]([C@H](C)CC#CC(C)(C)O)C2(C)C)C[C@@H](O)C[C@@H]1O |  | 0.25 | 100% | 200% | 40 | 
3 | C=C1/C(=C/C=C/[C@@H]2CC[C@H]([C@H](C)CCCC(C)(C)O)[C@@]2(C)CCC)C[C@@H](O)C[C@@H]1O | 8% | 1 | 10% | 1% | 80 | 85%
4 | C=C1/C(=C/C=C/[C@@H]2CC[C@H]([C@@H](C)CCCC(C)(C)O)C2(C)C)C[C@@H](O)C[C@@H]1O | 10% | 3 | 100% | 85% | 70 | 100%
5 | C=C1/C(=C/C=C/[C@@H]2CC[C@H]([C@H](C)CCCC(C)(C)O)C2(C)C)C[C@@H](O)C[C@@H]1O | 30% | 0.3 | 85% | 85% | 80 | 90%

Reference: ChEMBL document CHEMBL1129899, “Synthesis of CD-ring modified 1,25-dihydroxy vitamin D analogues: Five-membered D-ring analogues” (1997)
